Numbered stars: 1 amine (or outer) side, 2 acyl side, 3 side chain; on linkers, the order of the positions; unused ones are H or OH. Bridge positions count the residues as written; N and C are the ends. Square brackets hold non-standard residues; d marks the D form. Side chains are listed from the residue outwards. Peptide text beside a SMILES is read from it. * marks the point of attachment. C20 diacid = O=C(O)CCCCCCCCCCCCCCCCCCC(=O)*; C18 diacid = O=C(O)CCCCCCCCCCCCCCCCC(=O)*; γGlu = O=C(O)[C@H](CCC(=O)[*:2])N[*:1]; Hyp = O=C(O)[C@@H]1C[C@@H](O)CN1; Aad = N[C@@H](CCCC(=O)O)C(=O)O; Orn = NCCC[C@H](N)C(=O)O; AEEA = NCCOCCOCC(=O)O
Legend:
[1] = target: T1, human amylin receptor (Homo sapiens, UniProt O60896+P30988); experiment: Luciferase assay of amylin derivatives in amylin receptor/CRE-luc CHO cell line; assay type: cell-based; conditions: CHO-K1/Ga15/AMY3 CRE-luc cells, 24 hours incubation, F12 medium containing 10% FBS; read-out: EC50
T1 construct: host or cells: CHO-K1/Ga15/AMY3 cells, further stably transfected with a CRE-luciferase plasmid
T1 sequence (P30988 25-474): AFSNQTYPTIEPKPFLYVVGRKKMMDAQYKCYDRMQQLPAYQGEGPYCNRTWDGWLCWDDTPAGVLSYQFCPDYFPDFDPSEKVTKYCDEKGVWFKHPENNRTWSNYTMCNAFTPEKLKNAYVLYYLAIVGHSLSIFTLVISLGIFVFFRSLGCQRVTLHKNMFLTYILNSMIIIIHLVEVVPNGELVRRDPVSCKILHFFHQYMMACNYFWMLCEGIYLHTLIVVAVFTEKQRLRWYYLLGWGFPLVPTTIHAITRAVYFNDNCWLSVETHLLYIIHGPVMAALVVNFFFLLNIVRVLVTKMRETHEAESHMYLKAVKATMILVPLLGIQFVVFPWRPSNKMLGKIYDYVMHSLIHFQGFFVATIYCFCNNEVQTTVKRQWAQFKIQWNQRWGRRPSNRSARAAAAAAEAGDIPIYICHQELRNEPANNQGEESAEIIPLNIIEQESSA
T1 sequence (O60896 24-148 partner): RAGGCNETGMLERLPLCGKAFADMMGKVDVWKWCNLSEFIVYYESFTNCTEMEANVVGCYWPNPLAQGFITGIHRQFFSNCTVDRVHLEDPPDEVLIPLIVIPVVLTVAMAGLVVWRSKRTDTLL
Method: The experiment was intended to detect the activity or efficacy of the amylin derivatives on a human amylin receptor in vitro by luciferase assay.
50 μL of growth medium (F12 medium containing 10% FBS) was added into each well of a white 96-well plate, and the stably transfected amylin/CRE-lue CHO cells were inoculated into the white 96-well plate at a density of about 20,000 cells/well for activity determination.

[2] = Freeze-thaw stability of derivatives (freeze-thaw yield by liquid chromatography); assay type: physicochemical; conditions: for Dissolution property: appearance after dissolution at 0.2 mg/ml in 20 mM phosphate buffer solution (PB) (pH 7.0); for Freeze storage property: appearance after overnight storage at −20° C. and thawing to room temperature, 0.2 mg/ml in 20 mM PB (pH 7.0); for Freeze storage yield: concentration of polypeptide after freezing and thawing / concentration before, by liquid chromatography, −20° C. overnight
In short: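 Lyophilised peptide derivative dissolved at 0.2 mg/ml in 20 mM phosphate buffer, pH 7.0, frozen overnight at −20° C, then thawed at room temperature. Peptide concentration before and after freeze-thaw measured by reversed-phase HPLC on centrifuged supernatant; yield = post-thaw/pre-thaw concentration.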

| EC50 [1] | Dissolution property [2] | Freeze storage property [2] | Freeze storage yield [2] | Compound |
| --- | --- | --- | --- | --- |
| 0.01 nM | Clear | Clear | 95.59% | CC[C@H](C)[C@H](NC(=O)[C@@H]1CCCN1C(=O)CNC(=O)[C@H](CC(C)C)NC(=O)[C@H](CC(N)=O)NC(=O)[C@H](CC(N)=O)NC(=O)[C@H](CO)NC(=O)[C@H](CO)NC(=O)[C@H](Cc1c[nH]cn1)NC(=O)[C@H](CCCNC(=N)N)NC(=O)[C@H](CC(C)C)NC(=O)[C@H](Cc1ccccc1)NC(=O)[C@H](CC(=O)O)NC(=O)[C@H](C)NC(=O)[C@H](CC(C)C)NC(=O)[C@H](CCCNC(=N)N)NC(=O)[C@H](CCC(N)=O)NC(=O)[C@@H](NC(=O)[C@H](C)NC(=O)[C@@H]1CSSC[C@H](NC(=O)[C@H](CCCCN)NC(=O)COCCOCCNC(=O)CC[C@H](NC(=O)CCCCCCCCCCCCCCCCC(=O)O)C(=O)O)C(=O)N[C@@H](CC(N)=O)C(=O)N[C@@H]([C@@H](C)O)C(=O)N[C@@H](C)C(=O)N[C@@H]([C@@H](C)O)C(=O)N1)[C@@H](C)O)C(=O)N[C@@H](CC(C)C)C(=O)N1CCC[C@H]1C(=O)N1CCC[C@H]1C(=O)N[C@H](C(=O)N[C@@H](CC(N)=O)C(=O)N[C@H](C(=O)NCC(=O)N[C@@H](CO)C(=O)N[C@@H](CC(N)=O)C(=O)N[C@H](C(=O)N1C[C@H](O)C[C@H]1C(N)=O)[C@@H](C)O)C(C)C)[C@@H](C)O [PD125] ({C18 diacid-γGlu-AEEA}-KCNTATCATQRLADFLRHSSNNLGPILPPTNVGSNT[Hyp]-NH2; disulfide 2-7 (inferred)) |
| 1.68 nM | Clear | Clear | 101.35% | CC[C@H](C)[C@H](NC(=O)[C@@H]1CCCN1C(=O)[C@H](CCCCNC(=O)CC[C@H](NC(=O)CCCCCCCCCCCCCCCCCCC(=O)O)C(=O)O)NC(=O)[C@H](CC(C)C)NC(=O)[C@H](CC(N)=O)NC(=O)[C@H](CC(N)=O)NC(=O)[C@H](CO)NC(=O)[C@H](CO)NC(=O)[C@H](Cc1c[nH]cn1)NC(=O)[C@H](CCCN)NC(=O)[C@H](CC(C)C)NC(=O)[C@H](Cc1ccccc1)NC(=O)[C@H](CCC(=O)O)NC(=O)[C@H](C)NC(=O)[C@H](CC(C)C)NC(=O)[C@H](CCCNC(=N)N)NC(=O)[C@H](CCC(N)=O)NC(=O)[C@@H](NC(=O)[C@H](C)NC(=O)[C@@H]1CSSC[C@H](NC(=O)[C@@H](N)CCCNC(=N)N)C(=O)N[C@@H](CC(N)=O)C(=O)N[C@@H]([C@@H](C)O)C(=O)N[C@@H](C)C(=O)N[C@@H]([C@@H](C)O)C(=O)N1)[C@@H](C)O)C(=O)N[C@@H](CC(C)C)C(=O)N1CCC[C@H]1C(=O)N1CCC[C@H]1C(=O)N[C@H](C(=O)N[C@@H](CC(N)=O)C(=O)N[C@H](C(=O)NCC(=O)N[C@@H](CO)C(=O)N[C@@H](CC(N)=O)C(=O)N[C@H](C(=O)N1CCC[C@H]1C(N)=O)[C@@H](C)O)C(C)C)[C@@H](C)O [PD046] (H-RCNTATCATQRLAEFL[Orn]HSSNNLK([γGlu-C20 diacid])PILPPTNVGSNTP-NH2; disulfide 2-7 (inferred); N-terminus assumed) |
| 0.023 nM | Clear | Clear | 103.41% | CC[C@H](C)[C@H](NC(=O)[C@H](CCCCNC(=O)COCCOCCNC(=O)CC[C@H](NC(=O)CCCCCCCCCCCCCCCCCCC(=O)O)C(=O)O)NC(=O)CNC(=O)[C@H](CC(C)C)NC(=O)[C@H](CC(N)=O)NC(=O)[C@H](CC(N)=O)NC(=O)[C@H](CO)NC(=O)[C@H](CO)NC(=O)[C@H](Cc1c[nH]cn1)NC(=O)[C@H](CCCNC(=N)N)NC(=O)[C@H](CC(C)C)NC(=O)[C@H](Cc1ccccc1)NC(=O)[C@H](CC(=O)O)NC(=O)[C@H](C)NC(=O)[C@H](CC(C)C)NC(=O)[C@H](CCCNC(=N)N)NC(=O)[C@H](CCC(N)=O)NC(=O)[C@@H](NC(=O)[C@H](C)NC(=O)[C@@H]1CSSC[C@H](NC(=O)[C@@H](N)CCCNC(=N)N)C(=O)N[C@@H](CC(N)=O)C(=O)N[C@@H]([C@@H](C)O)C(=O)N[C@@H](C)C(=O)N[C@@H]([C@@H](C)O)C(=O)N1)[C@@H](C)O)C(=O)N[C@@H](CC(C)C)C(=O)N1CCC[C@H]1C(=O)N1CCC[C@H]1C(=O)N[C@H](C(=O)N[C@@H](CC(N)=O)C(=O)N[C@H](C(=O)NCC(=O)N[C@@H](CO)C(=O)N[C@@H](CC(N)=O)C(=O)N[C@H](C(=O)N1C[C@H](O)C[C@H]1C(N)=O)[C@@H](C)O)C(C)C)[C@@H](C)O [PD120] (H-RCNTATCATQRLADFLRHSSNNLGK([AEEA-γGlu-C20 diacid])ILPPTNVGSNT[Hyp]-NH2; disulfide 2-7 (inferred); N-terminus assumed) |
| 1.13 nM | Clear | Clear | 49.45% | CC[C@H](C)[C@H](NC(=O)[C@@H]1CCCN1C(=O)[C@H](CCCCNC(=O)CC[C@H](NC(=O)CCCCCCCCCCCCCCCCCCC(=O)O)C(=O)O)NC(=O)[C@H](CC(C)C)NC(=O)[C@H](CC(N)=O)NC(=O)[C@H](CC(N)=O)NC(=O)[C@H](CO)NC(=O)[C@H](CO)NC(=O)[C@H](Cc1c[nH]cn1)NC(=O)[C@H](CCCNC(=N)N)NC(=O)[C@H](CC(C)C)NC(=O)[C@H](Cc1ccccc1)NC(=O)[C@H](CCCC(=O)O)NC(=O)[C@H](C)NC(=O)[C@H](CC(C)C)NC(=O)[C@H](CCCNC(=N)N)NC(=O)[C@H](CCC(N)=O)NC(=O)[C@@H](NC(=O)[C@H](C)NC(=O)[C@@H]1CSSC[C@H](NC(=O)[C@@H](N)CCCNC(=N)N)C(=O)N[C@@H](CC(N)=O)C(=O)N[C@@H]([C@@H](C)O)C(=O)N[C@@H](C)C(=O)N[C@@H]([C@@H](C)O)C(=O)N1)[C@@H](C)O)C(=O)N[C@@H](CC(C)C)C(=O)N1CCC[C@H]1C(=O)N1CCC[C@H]1C(=O)N[C@H](C(=O)N[C@@H](CC(N)=O)C(=O)N[C@H](C(=O)NCC(=O)N[C@@H](CO)C(=O)N[C@@H](CC(N)=O)C(=O)N[C@H](C(=O)N1CCC[C@H]1C(N)=O)[C@@H](C)O)C(C)C)[C@@H](C)O [PD043] (H-RCNTATCATQRLA[Aad]FLRHSSNNLK([γGlu-C20 diacid])PILPPTNVGSNTP-NH2; disulfide 2-7 (inferred); N-terminus assumed) |
| 0.068 nM | Clear | Clear | 102.11% | CC[C@H](C)[C@H](NC(=O)[C@@H]1CCCN1C(=O)CNC(=O)[C@H](CC(C)C)NC(=O)[C@H](CC(N)=O)NC(=O)[C@H](CC(N)=O)NC(=O)[C@H](CO)NC(=O)[C@H](CO)NC(=O)[C@H](Cc1c[nH]cn1)NC(=O)[C@H](CCCNC(=N)N)NC(=O)[C@H](CC(C)C)NC(=O)[C@H](Cc1ccccc1)NC(=O)[C@H](CC(=O)O)NC(=O)[C@H](C)NC(=O)[C@H](CC(C)C)NC(=O)[C@H](CCCNC(=N)N)NC(=O)[C@H](CCC(N)=O)NC(=O)[C@@H](NC(=O)[C@H](C)NC(=O)[C@@H]1CSSC[C@H](NC(=O)[C@H](CCCCN)NC(=O)COCCOCCNC(=O)COCCOCCNC(=O)CC[C@H](NC(=O)CCCCCCCCCCCCCCCCCCC(=O)O)C(=O)O)C(=O)N[C@@H](CC(N)=O)C(=O)N[C@@H]([C@@H](C)O)C(=O)N[C@@H](C)C(=O)N[C@@H]([C@@H](C)O)C(=O)N1)[C@@H](C)O)C(=O)N[C@@H](CC(C)C)C(=O)N1CCC[C@H]1C(=O)N1CCC[C@H]1C(=O)N[C@H](C(=O)N[C@@H](CC(N)=O)C(=O)N[C@H](C(=O)NCC(=O)N[C@@H](CO)C(=O)N[C@@H](CC(N)=O)C(=O)N[C@H](C(=O)N1C[C@H](O)C[C@H]1C(N)=O)[C@@H](C)O)C(C)C)[C@@H](C)O [PD123] ({C20 diacid-γGlu-AEEA-AEEA}-KCNTATCATQRLADFLRHSSNNLGPILPPTNVGSNT[Hyp]-NH2; disulfide 2-7 (inferred)) |
| 0.073 nM | – | – | 0.00% | CC[C@H](C)[C@H](NC(=O)[C@@H]1CCCN1C(=O)[C@H](CCCCNC(=O)CC[C@H](NC(=O)CCCCCCCCCCCCCCCCCCC(=O)O)C(=O)O)NC(=O)[C@H](CC(C)C)NC(=O)[C@H](CC(N)=O)NC(=O)[C@H](CC(N)=O)NC(=O)[C@H](CO)NC(=O)[C@H](CO)NC(=O)[C@H](Cc1c[nH]cn1)NC(=O)[C@H](CCCNC(=N)N)NC(=O)[C@H](CC(C)C)NC(=O)[C@H](Cc1ccccc1)NC(=O)[C@H](CCC(=O)O)NC(=O)[C@H](C)NC(=O)[C@H](CC(C)C)NC(=O)[C@H](CCCNC(=N)N)NC(=O)[C@H](CCC(N)=O)NC(=O)[C@@H](NC(=O)[C@H](C)NC(=O)[C@@H]1CSSC[C@H](NC(=O)[C@@H](N)CCCNC(=N)N)C(=O)N[C@@H](CC(N)=O)C(=O)N[C@@H]([C@@H](C)O)C(=O)N[C@@H](C)C(=O)N[C@@H]([C@@H](C)O)C(=O)N1)[C@@H](C)O)C(=O)N[C@@H](CC(C)C)C(=O)N1CCC[C@H]1C(=O)N1CCC[C@H]1C(=O)N[C@H](C(=O)N[C@@H](CC(N)=O)C(=O)N[C@H](C(=O)NCC(=O)N[C@@H](CO)C(=O)N[C@@H](CC(N)=O)C(=O)N[C@H](C(=O)N1CCC[C@H]1C(N)=O)[C@@H](C)O)C(C)C)[C@@H](C)O [PD047] (H-RCNTATCATQRLAEFLRHSSNNLK([γGlu-C20 diacid])PILPPTNVGSNTP-NH2; disulfide 2-7 (inferred); N-terminus assumed) |
